This is an account of results in PubChem BioAssay (NCI).

Where “and” joins values, the source holds several entries; their conditions need not be identical. Identical values can stand only once.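 Each compound was tested at five concentrations against cells in 96-well plates for 48 hours. Here, GI50 denotes the concentration required for 50% inhibition of growth. TGI: concentration producing complete growth inhibition.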

The first experiment deals with SR leukemia. Put plainly: NCI-60 cell line screen, 48 h.
With `CSc1ccc(/C=C2\CNC/C(=C\c3ccc(SC)cc3)C2=O)cc1`, the GI50 is 23.3 µM; the TGI was 67.8 µM and > 190 µM.
Turning to `COC(=O)C1=C(OC(=O)c2ccc(Cl)cc2)C(C(=O)OC)[C@@]2(O)[C@@H](C(=O)OC)C(c3ccccc3C(F)(F)F)C[C@@H]1[C@@H]2C(=O)OC` (stereo partly specified), the GI50 is 3.94 µM and the TGI was > 100 µM.
Regarding `CC[C@H](C)[C@H](NC(=O)c1cnccn1)C(=O)N(C)[C@H](C[C@@H](OC(C)=O)c1nc(C(=O)N[C@@H](Cc2ccccc2)C[C@H](C)C(=O)OC)cs1)C(C)C`, the GI50 was 0.048 µM and the TGI was > 33.3 µM.

A further experiment concerns UACC-257 melanoma. Kind of experiment: NCI-60 cell line screen, 48 h.
On to `CC[N+]1(C)CCC(O)(c2ccc(C)cc2)C(C(=O)c2ccc(C)cc2)C1` (stereo unspecified), for which the TGI is > 100 µM.
In the case of `CC(=O)c1cccc(N(/C=C/C(=O)C(F)(F)F)CC(=O)c2ccc(Cl)cc2)c1`, the GI50 is > 100 µM and the TGI was > 100 µM.
Turning to `C#C[C@]1(O)CC[C@H]2[C@@H]3CC=C4c5nc(Nc6ccccn6)sc5CC[C@]4(C)[C@H]3CC[C@@]21C`, the GI50 was 0.778 µM and the TGI is 2.55 µM.
The like results for `CSc1ccc(C2=Nn3c(nnc3-c3ccc(F)c(Cl)c3)SC2)cc1` were, in that order, 67.6 µM and > 100 µM.
For the compound `O=c1oc2ccccc2c(O)c1C=NC(=S)c1ccncc1`, the TGI was > 100 µM.
As for `CC(C)(C)OC(=O)NCC(C#N)CNC(=O)OC(C)(C)C`, the TGI is > 100 µM.
On to `COc1ccc(-c2cc(-c3ccc(Cl)cc3)c(C#N)c(=O)n2CCCCC(=O)Nc2ccccc2N)cc1`, for which the GI50 is 4.48 µM and the TGI was > 100 µM.
Take `CC1(C)C(=O)C(O)=CC2C1=CCC1C2(C)C(=O)CC2(C)C(C(C)(O)C(=O)CC(O)C(C)(C)O)C(O)CC12C` (stereo unspecified): the TGI was 30.2 µM.
As to `Cc1cc2c(C(C)C)c(O)c(O)c(C=Nc3cc(C(F)(F)F)ccc3Cl)c2c(O)c1-c1c(C)cc2c(C(C)C)c(O)c(O)c(C=Nc3cc(C(F)(F)F)ccc3Cl)c2c1O`, the TGI was > 100 µM.
On to `COc1cc(C2c3cc4c(cc3[C@@H](Nc3ccc(N(C)C)cc3)[C@H]3COC(=O)C23)OCO4)cc(OC)c1O` (stereo partly specified), for which the GI50 is 10.2 µM; the TGI is 11.2 µM and 28.8 µM.
With `O=c1nc(-c2ccccc2)c2c3c(cccn13)CCC2`, the TGI was > 100 µM.
In the case of `COc1ccc([C@H]2CC(=O)N3CCCC3N2)cc1` (stereo partly specified), the TGI is > 100 µM.
For `C=C(C)C1CC2C(C)=C(OC(C)=O)C1n1c(=O)c3cc4ccccc4cc3c(=O)n12` (stereo unspecified), the TGI is > 100 µM.
As to `COc1cc2cc(Oc3ccc(NC(=O)c4cccc(C(F)(F)F)c4)cc3)c(C)nc2cc1OC`, the GI50 was 5.41 µM and the TGI is > 100 µM.
On to `COc1cc(Nc2ccnc(N3CCN(c4ccnc5cc(Cl)ccc45)CC3)n2)cc(OC)c1`, for which the GI50 was 3.35 µM and the TGI was > 100 µM.
As to `O=C(CCc1nc(=S)[nH][nH]1)NC12CC3CC(CC(C3)C1)C2`, the TGI is > 100 µM.
On to `CSc1ccc(/C=C2\CNC/C(=C\c3ccc(SC)cc3)C2=O)cc1`, for which the GI50 was 150 µg/mL; the TGI was > 371 µM and 150 µg/mL.
In the case of `COC(=O)C1=C(OC(=O)c2ccc(Cl)cc2)C(C(=O)OC)[C@@]2(O)[C@@H](C(=O)OC)C(c3ccccc3C(F)(F)F)C[C@@H]1[C@@H]2C(=O)OC` (stereo partly specified), the GI50 was 2.76 µM and the TGI was determined as 8.32 µM.
`CC[C@H](C)[C@H](NC(=O)c1cnccn1)C(=O)N(C)[C@H](C[C@@H](OC(C)=O)c1nc(C(=O)N[C@@H](Cc2ccccc2)C[C@H](C)C(=O)OC)cs1)C(C)C`: the GI50 is 5.21 µM and the TGI was 22.1 µM.
As to `N#CC(C#N)SCc1ccccc1`, the TGI is > 100 µM.

The subject of the next experiment is UO-31 renal. Kind of experiment: NCI-60 cell line screen, 48 h.
With `CC[N+]1(C)CCC(O)(c2ccc(C)cc2)C(C(=O)c2ccc(C)cc2)C1` (stereo unspecified), the TGI was > 100 µM.
Take `CC(=O)c1cccc(N(/C=C/C(=O)C(F)(F)F)CC(=O)c2ccc(Cl)cc2)c1`: the GI50 is > 100 µM and the TGI was > 100 µM.
As for `C#C[C@]1(O)CC[C@H]2[C@@H]3CC=C4c5nc(Nc6ccccn6)sc5CC[C@]4(C)[C@H]3CC[C@@]21C`, the GI50 is 1.21 µM and the TGI came to 2.64 µM.
On to `CSc1ccc(C2=Nn3c(nnc3-c3ccc(F)c(Cl)c3)SC2)cc1`, for which the GI50 is 16.5 µM and the TGI amounted to 43.7 µM.
Take `O=c1oc2ccccc2c(O)c1C=NC(=S)c1ccncc1`: the TGI is > 100 µM.
As to `CC(C)(C)OC(=O)NCC(C#N)CNC(=O)OC(C)(C)C`, the TGI was > 100 µM.
For `COc1ccc(-c2cc(-c3ccc(Cl)cc3)c(C#N)c(=O)n2CCCCC(=O)Nc2ccccc2N)cc1`, the GI50 was 4.71 µM and the TGI is > 100 µM.
`CC1(C)C(=O)C(O)=CC2C1=CCC1C2(C)C(=O)CC2(C)C(C(C)(O)C(=O)CC(O)C(C)(C)O)C(O)CC12C` (stereo unspecified) had a TGI of 4.49 µM.
Consider `Cc1cc2c(C(C)C)c(O)c(O)c(C=Nc3cc(C(F)(F)F)ccc3Cl)c2c(O)c1-c1c(C)cc2c(C(C)C)c(O)c(O)c(C=Nc3cc(C(F)(F)F)ccc3Cl)c2c1O`, for which the TGI is > 100 µM.
As for `COc1cc(C2c3cc4c(cc3[C@@H](Nc3ccc(N(C)C)cc3)[C@H]3COC(=O)C23)OCO4)cc(OC)c1O` (stereo partly specified), the GI50 was 1.47 µM; the TGI is 3.27 µM and 6.69 µM.
On to `O=c1nc(-c2ccccc2)c2c3c(cccn13)CCC2`, for which the TGI is > 100 µM.
`COc1ccc([C@H]2CC(=O)N3CCCC3N2)cc1` (stereo partly specified): the TGI was > 100 µM.
As to `C=C(C)C1CC2C(C)=C(OC(C)=O)C1n1c(=O)c3cc4ccccc4cc3c(=O)n12` (stereo unspecified), the TGI is > 100 µM.
As for `COc1cc2cc(Oc3ccc(NC(=O)c4cccc(C(F)(F)F)c4)cc3)c(C)nc2cc1OC`, the GI50 was 4.59 µM and the TGI was > 100 µM.
With `COc1cc(Nc2ccnc(N3CCN(c4ccnc5cc(Cl)ccc45)CC3)n2)cc(OC)c1`, the GI50 was 0.938 µM and the TGI is > 30.7 µM.
Consider `O=C(CCc1nc(=S)[nH][nH]1)NC12CC3CC(CC(C3)C1)C2`, for which the TGI was > 100 µM.
With `CSc1ccc(/C=C2\CNC/C(=C\c3ccc(SC)cc3)C2=O)cc1`, the GI50 was 150 µg/mL; the TGI was > 371 µM and 150 µg/mL.
Regarding `COC(=O)C1=C(OC(=O)c2ccc(Cl)cc2)C(C(=O)OC)[C@@]2(O)[C@@H](C(=O)OC)C(c3ccccc3C(F)(F)F)C[C@@H]1[C@@H]2C(=O)OC` (stereo partly specified), the GI50 is 12.6 µM and the TGI is 31.6 µM.
`CC[C@H](C)[C@H](NC(=O)c1cnccn1)C(=O)N(C)[C@H](C[C@@H](OC(C)=O)c1nc(C(=O)N[C@@H](Cc2ccccc2)C[C@H](C)C(=O)OC)cs1)C(C)C`: the GI50 is 2.23 µM and the TGI was > 33.3 µM.
Take `N#CC(C#N)SCc1ccccc1`: the TGI was > 100 µM.
